“Also recorded” adds a separate entry of the source.
Key:
[1] = system: THP-1 cells; experiment: Intracellular Ca2+ influx screening (Fura-2) in THP-1 cells; assay type: cell-based, human; conditions: hit candidate compounds 10 μM, 25 minutes, vs vehicle control (DMSO)
Description: FIGS. 1A-1D. Intracellular Ca^2+ influx screening of 84 HTS hit candidate compounds. (A) THP-1 cells were loaded with the ratiometric Ca^2+ indicator, Fura-2, and treated with lonomycin (ION, 1 μM), Thapsigargin (1 μM), or 84 hit candidate compounds (10 μM) for 25 minutes. Data are presented as the area under the curve (AUG) of OD340/380 ratios corresponding to the intracellular Ca^2+ kinetics. The baseline-subtracted AUG was calculated using GraphPad Prism (GraphPad Software, San Diego, CA). (B) Ca^2+ mobilization by compound #634. mBMDCs were loaded with the ratiometric Ca^2+ indicator, Fura-8, and treated with ION (1 μM), or #634 (2 and 10 μM) for 25 minutes. The dashed line indicates the timing of compounds added. The data shown are representative of three independent experiments showing similar results. (C) Ca^2+ add-back assay. Fura-8-loaded mBMDC were treated with ION (1 μM), or compound #634 (2 μM, 10 μM) for 15 minutes in the absence of extracellular Ca^2+, and then Ca^2+ (final 1.8 mM) was added at 15 minutes. Data shown are representative of three independent experiments showing similar results. (D) C57BL/6 mice (n=5/group) were intramuscularly immunized with ovalbumin (OVA, 20 μg/mouse) adjuvanted with compound #634 (200 nmol/mouse), or Veh (10% DMSO) on days 0 and 21 and bled on day 28. OVA-specific IgGI and IgG2c levels in sera were determined by ELISA. **p<0.01, ***p<0.001, ns (not significant) by KruskalWallis tests with Dunn's post hoc test vs. Veh.
FIGS. 18A-18C. Compound 634 induces intracellular Ca^2+ levels in mBMDCs. […] The time-response pattern of intracellular Ca^2+ levels was recorded for 25 minutes. AUC of OD340/380 ratios corresponds to the intracellular Ca^2+ kinetics, and the baseline-subtracted AUC was calculated by GraphPad Prism. […]
FIGS. 24A-24B. […] The time-response pattern of intracellular Ca^2+ levels was recorded with a plate reader for 25 minutes. (A) The AUC of OD340/380 ratios corresponds to the intracellular Ca^2+ kinetics and the baseline-subtracted AUC was calculated by GraphPad Prism (FIG. 36). […]

[2] = system: mBMDCs; experiment: Cell viability / cytotoxicity in mBMDCs (MTT); assay type: cell-based, mouse; conditions: mBMDCs, Example 2 clustered hits
Description: FIGS. 30A-30B. […] After 48 hours incubation, cell viability was determined by MTT assay.
mBMDCs (10^5 cells/200 μL/well) were treated with 10 and 5 μM of a test compound in 96-well plates overnight. After 18 hours of drug treatment, MTT (0.5 mg/ml) was added to each well. The cells were lysed after 6-8 hours incubation, and absorbance values at 570 and 650 nm were measured. PrestoBlue reagent (#A13261, Thermo Fisher Scientific) was used for cell viability assay in CD63 HTS as described earlier.
Cell viability assay. mBMDCs (2×10^6 cells/200 μL/well in RPMI1640 supplemented with dialyzed 10% FBS, or 1.5×10^6 cells/200 μL/well in RPMI1640 supplemented with 10% exosome depleted FBS) were treated with 10 μM of each test compound in 96-well plates. After 46-48 hours of compound treatment, MTT (0.5 mg/mL) was added to each well. The cells were lysed after overnight incubation, and absorbance values at 570 and 650 nm were measured.

[3] = system: NF-κB; experiment: NF-κB-bla THP-1 HTS; assay type: cell-based, human; conditions: 10 μM, 5 hours
Description: The robotic HTS using the three reporter cells were performed using 384-well plates by the SelectScreen™ service, Thermo Fisher Scientific (Madison, WI) (Pu et al., 2012; Chan et al., 2017b; Shukla et al., 2018). For HTS using NF-κB-bla and ISRE-bla THP-1 cells, LPS (100 ng/ml) and human IFN-α (50 nM) were used as the positive controls, respectively, while 0.5% DMSO was used as vehicle (Veh). The cells were incubated with compounds (10 μM) for 5 hours, and LiveBLAzer™ FRET BIG substrate (CCF4-AM) mixture was added. Fluorescence was measured at an excitation wavelength of 405 nm, and emission wavelengths of 465 and 535 nm. The background values were subtracted from the raw values (cell-free wells at the same fluorescence wavelength). Emission ratios were calculated by dividing background-subtracted values from em1ss1on wavelength of 465 nm by those from emission wavelength of 535 nm. The response ratio (RR) was calculated as follows (emission ratio of a test well)/(average emission ratio of wells with Veh). Further, for comparison of activity, “% activation” for each compound was computed within the plate as 100×(compound RR−average Veh RR)/(average LPS RR−average Veh RR).

[4] = system: mBMDCs; experiment: EV release from mBMDCs (differential ultracentrifugation, MRPS); conditions: 10 μM, 46-48 h, vs Veh

SMILES: COC(=O)c1sc(-c2cccs2)cc1NS(=O)(=O)c1ccsc1C(=O)OC [#504]
- intracellular Ca^2+ increase (Fura-2 assay) [1]: higher intracellular Ca^2+ increase than vehicle control; also recorded: potent in calcium Fura-2 assay
- MTT assay values (cell viability) [2]: higher MTT values
- NF-κB activity (primary HTS) [3]: much lower NF-κB inducing activity
- number of EV particles released in the culture supernatant [4]: low

Source: patent publication US20250281465A1, “MOLECULES THAT ENHANCE EXTRACELLULAR VESICLE RELEASE” (priority 2022, published 2025)
